Measured values published in patent US12226396B2, “Gluconic acid derivatives for use in the treatment and/or prevention of microbial infections” (GEDEA BIOTECH AB, priority 2017, dated 2025).

How the values were obtained:
[1] = test system: Beta-Hemolytic Streptococci Groups C Streptococcus dysgalactiae ss equisimilis CCUG 4211; assay: MIC microdilution test; format: cell-based; details: CCUG 4211, 5% CO2
Description: (§1) The test substance solution was prepared aseptically at 1 g/ml in sterile H2O. […] After 48 and 72 hours of incubation, the OD was measured and ocular assessments were done. […] All strains were recovered from microbanks and streak and subculture plates were made. The aerobes on TSA plates, the fastidious aerobes on horse blood plates and the anaerobe on FAA plates. […] At the time of testing, loopfuls of colonies selected from 18- to 24-hour agar plates for the aerobes and fastidious aerobes were suspended in 5 ml saline in 10 ml tubes containing 10 glass beads a 3 mm in diameter. […] The cell suspensions were then vortexed vigorously for 1 minute to obtain a turbid suspension. Each suspension of the aerobes and fastidious aerobes was adjusted to equal OD 0.28 at 475 nm using a spectrophotometer, which correlates approximately to 1-3×10^8 CFU/ml with most species. For the anaerobe, the OD measurement turned out to be difficult due to the use of blood in the culture medium. […] The aerobes and fastidious aerobes were further diluted in saline 10 times so that the inoculum concentration equaled to […]. The anaerobe was not diluted but used directly as is. The different aerobic and fastidious aerobic bacterial suspensions were transferred to respective wells of a 96 well plate. A. baumannii, E. coli, and P. aeruginosa were placed in one row, the Staphylococci spp. were placed in a second row, and the fastidious aerobes were placed in a third row of the plate. The anaerobe was transferred from a 25 ml multichannel pipette reservoir. The Microdilution Preparations and the MIC tests were performed as in example 13.

[2] = test system: Porphyromonas gingivalis CCUG 25893/ATCC 33277; assay: MIC microdilution test; format: cell-based; details: CCUG 25893, strict anaerobic conditions
Description: as §1

[3] = test system: Streptococcus pyogenes CCUG 47803/ATCC 700294; assay: MIC microdilution test; format: cell-based; details: CCUG 47803, 5% CO2
Description: as §1

[4] = test system: Escherichia coli CCUG 3274/ATCC 10536; assay: MIC microdilution test; format: cell-based; details: CCUG 3274, aerobic
Description: as §1

[5] = test system: Staphylococcus aureus CCUG 15915/ATCC 29213; assay: MIC microdilution test; format: cell-based; details: CCUG 15915, aerobic
Description: as §1

[6] = test system: Beta-Hemolytic Streptococci Groups G Streptococcus dysgalactiae ss equisimilis CCUG 7975; assay: MIC microdilution test; format: cell-based; details: CCUG7975, 5% CO2
Description: as §1

[7] = test system: Acetinobacter baumanii CCUG 57035; assay: MIC microdilution test; format: cell-based; details: CCUG 57035, aerobic
Description: as §1

[8] = test system: Pseudomonas aeruginosa (PAO1) CCUG 56489/ATCC 15692; assay: MIC microdilution test; format: cell-based; details: CCUG 56489, aerobic
Description: as §1

[9] = test system: Streptococcus agalactiae CCUG 29376; assay: MIC microdilution test; format: cell-based; details: CCUG 29376, 5% CO2
Description: as §1

[10] = test system: Staphylococcus epidermidis CCUG 23118; assay: MIC microdilution test; format: cell-based; details: CCUG 23118, aerobic
Description: as §1

[11] = test system: C. glabrata; assay: Mature biofilm cell survival, serial dilution plating on YPD; format: cell-based, Candida glabrata; details: 0.2 and 0.5 g/ml, 5 h of incubation, 37° C
Description: (§2) The plated cells were incubated for 24 h at 37° C. and visually analyzed. The cells from the mature biofilm treated with water were used as a control. […] At the concentrations of 0.2 and 0.5 g/ml after 5 h of incubation the cell viability was decreased by about 100 times for both C. albicans and C. glabrata.

[12] = test system: Escherichia coli K12; assay: E. coli biofilm study in M9 medium (crystal violet); format: cell-based
Description: The bacterial strain Escherichia coli K12 was used for the biofilm study. This strain was maintained on LB medium at 37° C. The biofilm was studied in synthetic medium M9 (×1 M9 minimal salts (Sigma M6030), 2 mM MgSO4, 0.1 mM CaCl2, and 0.2% glucose), which contained either phosphate buffer, citric acid, lactic acid, gluconic acid or glucono-O-lactone to obtain media with different pH (2.6-6.6).
The overnight culture of E. coli K12 (OD600˜5.0) was washed with sterile water and inoculated to the final concentration 0.2 OD/ml of M9 medium with different pH of different compounds. The biofilm development was studied in 96-well flat-bottom polystyrene microtiter plates (Sigma Aldrich, Corning® Costar® culture plates, CLS3596-50EA). The biofilm was stained with crystal violet.

[13] = test system: C. albicans; assay: Mature biofilm cell survival, serial dilution plating on YPD; format: cell-based, Candida albicans
Description: as §2

[14] = test system: C. albicans; assay: Microfluidics study of biofilm development (cell morphology); format: cell-based, Candida albicans; details: 1 h hydrolysate of 2.5 g pellet diluted 50 times, after 5 h
Description: To monitor the C. albicans cell morphology we studied the biofilm development also using microscopy and microfluidics. After the yeast cells were inoculated, hyphae started to form within first hour of incubation in the biofilm medium (YNB supplemented with 100 mM proline and 0.2% glucose, pH7.0). […] A sample was taken after 1 h and diluted 50 times with biofilm medium and added to C. albicans.

[15] = test system: Lactobacillus iners CCUG 44025; assay: MIC microdilution test; format: cell-based; details: CAMHB, anaerobic conditions, 120 hours
Description: Gardnerella vaginalis, Lactobacillus iners, and Lactobacillus crispatus were recovered by CCUG (Culture Collection of University of Gothenburg). Subculture plates were made for G. vaginalis on Chocolate-GL plates and Lactobacillus spp. on M.R.S. agar plates at 5% CO2, 36° C. The inoculums were prepared from the subculture plates. Colonies were inoculated to culture tubes with 5 ml test medium and vortexed 2 min with about 10 glass beads a 3 mm in diameter. Colonies were taken until the turbidity of the solution was OD475 of 0.4-0.5. The bacterial solutions were checked in light microscopy at ×40 with phase contrast to make sure that the cells were dispersed. Each bacterial suspension was diluted in its test medium, 1:100, to equal 1-3×10^6 CFU/ml. The microbial solutions were stored at 20° C. during the preparation of the inoculums
The test substance solution was prepared aseptically at 1 g/ml in sterile H2O. The first row of wells was filled with 100 μl substance and then 2 fold dilutions were done vertically in 8 steps.
The pH was also measured for all dilutions, n=1, pH=6.8-7.1

## O=C1O[C@H](CO)[C@@H](O)[C@H](O)[C@H]1O [GDA, glucono-δ-lactone]
[1]
  MIC (g/ml): 0.0016 g/ml
[2]
  MIC (g/ml): 0.0031 g/ml
[3]
  MIC (g/ml): 0.0031 g/ml
[4]
  MIC (g/ml): 0.0063 g/ml
[5]
  MIC (g/ml): 0.0063 g/ml
[6]
  MIC (g/ml): 0.0031 g/ml
[7]
  MIC (g/ml): 0.0031 g/ml
[8]
  MIC (g/ml): 0.0031 g/ml
[9]
  MIC (g/ml): 0.0031 g/ml
[10]
  MIC (g/ml): 0.0031 g/ml
[11]
  decrease of cell viability: about 100 times
[12]; M9 medium, 24-48 hours
  effect on growth (biomass): inhibiting effect on the growth
[12]; pH 2.6, 24 h
  decrease of biofilm formation: 14.2 times
[12]; pH 2.6, 48 h
  decrease of biofilm formation: 30 times
[13]; 0.2 and 0.5 g/ml, 5 h of incubation, 37° C
  decrease of cell viability: about 100 times
[13]; 0.5 g/ml, 73 h of incubation
  decrease of cell viability: about 1000 times
[14]
  cell morphology: most treated cells were planctonic
[15]
  MIC (g/ml): 0.0078 g/ml
